The values below come from patent US10125134B2 (Mirati Therapeutics, Inc., priority 2016, dated 2018).

Like-named read-outs stand apart in the source and are kept apart here.

Assay [1] relates to NCI-H358 cells (express KRas G12C), Phospho-ERK. In words: Cellular inhibition of KRas G12C: Phospho-ERK in NCI-H358 cells. In kind it is cell-based. The conditions noted are these: Homo sapiens, pERK(Thr202/Tyr204) normalized with GAPDH, NCI-H358 cells, 3 hours, read-out: IC50. The essentials: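 IC50 derived by 4-parameter fit of GAPDH-normalized pERK(Thr202/Tyr204) signal, as percent of DMSO control. Signal came from in-cell immunodetection with infrared secondaries after 3 h compound exposure of KRas G12C NCI-H358 cells at 0.5% DMSO.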

A further assay has as its target KRas G12C (Homo sapiens, UniProt P01116, C118S/C51S/C80L/G12C). The assay can be described thus: KRas G12C Modification Assay (LCMS detection of covalent adduct). In kind it is binding. To be noted: normalized percent of control; tested at 5 μM concentration for 3 hours. The method in brief: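 Cys-light KRas G12C mutant protein incubated with compound in K-Ras assay buffer, reactions quenched at set time points with 25 mM acetic acid and analysed by intact-protein LC/MS on a C-3 column. Deconvoluted mass heights expressed as percent of control (POC) relative to compound-free protein.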

For the compound `C=CC(=O)N1CCN(c2nc(OCC3COCCN3C)nc3c2CCN(c2cc(O)cc4ccccc24)C3)CC1` (stereo not drawn) [Example 194, 1-(4-(7-(3-hydroxynaphthalen-1-yl)-2-((4-methylmorpholin-3-yl)methoxy)-5,6,7,8-tetrahydropyrido[3,4-d]pyrimidin-4-yl)piperazin-1-yl)prop-2-en-1-one], the IC50 in assay [1] (NCI-H358, 3 h) was greater than 1 µM. The POC result on KRas G12C is on record as “C (“C”>50% POC)”.

Regarding `C=CC(=O)N1CCN(c2nc(OC[C@H]3CCCCN3C)nc3c2CCN(c2cc(O)cc4ccccc24)C3)CC1` [Example 195, (R)-1-(4-(7-(3-hydroxynaphthalen-1-yl)-2-((1-methylpiperidin-2-yl)methoxy)-5,6,7,8-tetrahydropyrido[3,4-d]pyrimidin-4-yl)piperazin-1-yl)prop-2-en-1-one], the IC50 in assay [1] (NCI-H358, 3 h) was greater than 1 µM. In addition, the POC result on KRas G12C is on record as “C (“C”>50% POC)”.

For `C=CC(=O)N1CCN(c2nc(OC[C@@H]3CCCCN3C)nc3c2CCN(c2cc(O)cc4ccccc24)C3)CC1` [Example 196, (S)-1-(4-(7-(3-hydroxynaphthalen-1-yl)-2-((1-methylpiperidin-2-yl)methoxy)-5,6,7,8-tetrahydropyrido[3,4-d]pyrimidin-4-yl)piperazin-1-yl)prop-2-en-1-one], the IC50 in assay [1] (NCI-H358, 3 h) lay in the range of 0.0001 to 1 µM. In addition, at KRas G12C, the POC entry is recorded as “C (“C”>50% POC)”.

Take `C=CC(=O)N1CCN(c2nc(OC[C@@H]3CCCN3CC)nc3c2CCN(c2cc(O)cc4ccccc24)C3)CC1` [Example 197, (S)-1-(4-(2-((1-ethylpyrrolidin-2-yl)methoxy)-7-(3-hydroxynaphthalen-1-yl)-5,6,7,8-tetrahydropyrido[3,4-d]pyrimidin-4-yl)piperazin-1-yl)prop-2-en-1-one]: the IC50 in assay [1] (NCI-H358, 3 h) was in the range of 0.0001 to 1 µM. Moreover, the POC entry on KRas G12C is “C (“C”>50% POC)”.

On to `C/C=C/C(=O)N1CCN(c2nc(OC[C@@H]3CCCN3C)nc3c2CCN(c2cc(O)cc4ccccc24)C3)CC1` [Example 198, (S,E)-1-(4-(7-(3-hydroxynaphthalen-1-yl)-2-((1-methylpyrrolidin-2-yl)methoxy)-5,6,7,8-tetrahydropyrido[3,4-d]pyrimidin-4-yl)piperazin-1-yl)but-2-en-1-one], for which, in assay [1] (NCI-H358, 3 h), the half-inhibitory concentration (IC50) is greater than 1 µM. The POC entry at KRas G12C was “C (“C”>50% POC)”.

Take `CN(C)C/C=C/C(=O)N1CCN(c2nc(OC[C@@H]3CCCN3C)nc3c2CCN(c2cc(O)cc4ccccc24)C3)CC1` [Example 199, (S,E)-4-(dimethylamino)-1-(4-(7-(3-hydroxynaphthalen-1-yl)-2-((1-methylpyrrolidin-2-yl)methoxy)-5,6,7,8-tetrahydropyrido[3,4-d]pyrimidin-4-yl)piperazin-1-yl)but-2-en-1-one]: the IC50 in assay [1] (NCI-H358, 3 h) was greater than 1 µM. Moreover, on KRas G12C, the POC entry is recorded as “C (“C”>50% POC)”.

For the compound `C=CC(=O)N1CCN(c2nc(OC[C@@H]3CCCN3C)nc3c2CCN(c2cccc4ccccc24)C3)C[C@H]1C` [Example 201, 1-((R)-2-methyl-4-(2-(((S)-1-methylpyrrolidin-2-yl)methoxy)-7-(naphthalen-1-yl)-5,6,7,8-tetrahydropyrido[3,4-d]pyrimidin-4-yl)piperazin-1-yl)prop-2-en-1-one], the IC50 in assay [1] (NCI-H358, 3 h) is greater than 1 µM. For the same compound, the POC entry on KRas G12C was “B (“B”>25% POC−≤50% POC)”.

With `C=CC(=O)N1CCN(c2nc(OC[C@@H]3CCCN3C)nc3c2CCN(c2cc(O)cc4ccccc24)C3)[C@@H](C)C1` [Example 202, 1-((S)-4-(7-(3-hydroxynaphthalen-1-yl)-2-(((S)-1-methylpyrrolidin-2-yl)methoxy)-5,6,7,8-tetrahydropyrido[3,4-d]pyrimidin-4-yl)-3-methylpiperazin-1-yl)prop-2-en-1-one], in assay [1] (NCI-H358, 3 h), the IC50 lay in the range of 0.0001 to 1 µM. Besides, at KRas G12C, the POC result is recorded as “C (“C”>50% POC)”.

As for `C=CC(=O)N1CCN(c2nc(OC[C@H]3CCCN3C)nc3c2CCN(c2cc(O)cc4ccccc24)C3)[C@@H](C)C1` [Example 203, 1-((S)-4-(7-(3-hydroxynaphthalen-1-yl)-2-(((R)-1-methylpyrrolidin-2-yl)methoxy)-5,6,7,8-tetrahydropyrido[3,4-d]pyrimidin-4-yl)-3-methylpiperazin-1-yl)prop-2-en-1-one], the IC50 in assay [1] (NCI-H358, 3 h) is 0.0001 to 1 µM. For the same compound, the POC result at KRas G12C was “C (“C”>50% POC)”.

With `C=CC(=O)N1CCN(c2nc(NC3CCN(C4CC4)CC3)nc3c2CCN(c2cc(O)cc4ccccc24)C3)CC1` [Example 204, 1-(4-(2-((1-cyclopropylpiperidin-4-yl)amino)-7-(3-hydroxynaphthalen-1-yl)-5,6,7,8-tetrahydropyrido[3,4-d]pyrimidin-4-yl)piperazin-1-yl)prop-2-en-1-one], the half-maximal inhibitory concentration (IC50) in assay [1] is greater than 1 µM. The POC entry on KRas G12C is on record as “C (“C”>50% POC)”.

Take `C=CC(=O)N1CCN(c2nc(OCCCN3CCOCC3)nc3c2CCN(c2cc(O)cc4cccnc24)C3)CC1` [Example 205, 1-(4-(7-(6-hydroxyquinolin-8-yl)-2-(3-morpholinopropoxy)-5,6,7,8-tetrahydropyrido[3,4-d]pyrimidin-4-yl)piperazin-1-yl)prop-2-en-1-one]: in assay [1], the IC50 is greater than 1 µM. Moreover, on KRas G12C, the POC entry is listed as “C (“C”>50% POC)”.

With `C=CC(=O)N1CCN(c2nc(OCCCN3CC4CC4C3)nc3c2CCN(c2cc(O)cc4ccccc24)C3)CC1` (stereo not drawn) [Example 206, 1-(4-(2-(3-(3-azabicyclo[3.1.0]hexan-3-yl)propoxy)-7-(3-hydroxynaphthalen-1-yl)-5,6,7,8-tetrahydropyrido[3,4-d]pyrimidin-4-yl)piperazin-1-yl)prop-2-en-1-one], the IC50 in assay [1] is 0.0001 to 1 µM. The POC entry at KRas G12C is recorded as “C (“C”>50% POC)”.

For `C=CC(=O)N1CCN(c2nc(OCCN3CCC[C@@H](F)C3)nc3c2CCN(c2cc(O)cc4ccccc24)C3)CC1` [Example 207, (R)-1-(4-(2-(2-(3-fluoropiperidin-1-yl)ethoxy)-7-(3-hydroxynaphthalen-1-yl)-5,6,7,8-tetrahydropyrido[3,4-d]pyrimidin-4-yl)piperazin-1-yl)prop-2-en-1-one], the IC50 in assay [1] was greater than 1 µM. On KRas G12C, the POC result is given as “C (“C”>50% POC)”.

Consider `C=CC(=O)N1CCN(c2nc(OCCCN3C[C@@H](F)[C@@H](F)C3)nc3c2CCN(c2cc(O)cc4ccccc24)C3)CC1` [Example 208, 1-(4-(2-(3-((3R,4S)-3,4-difluoropyrrolidin-1-yl)propoxy)-7-(3-hydroxynaphthalen-1-yl)-5,6,7,8-tetrahydropyrido[3,4-d]pyrimidin-4-yl)piperazin-1-yl)prop-2-en-1-one], for which, in assay [1], the concentration for half-maximal inhibition (IC50) was greater than 1 µM. Also, the POC entry at KRas G12C is “C (“C”>50% POC)”.

Consider `C=CC(=O)N1CCN(c2nc(OCCCN3CCOCC3)nc3c2CCN(c2c(C)ccc4[nH]ccc24)C3)CC1` [Example 209, 1-(4-(7-(5-methyl-1H-indol-4-yl)-2-(3-morpholinopropoxy)-5,6,7,8-tetrahydropyrido[3,4-d]pyrimidin-4-yl)piperazin-1-yl)prop-2-en-1-one], for which the IC50 in assay [1] was greater than 1 µM. Also, on KRas G12C, the POC result is “C (“C”>50% POC)”.

In the case of `C=CC(=O)N1CCN(c2nc(OC[C@@H]3CCCN3C)nc3c2CCN(c2ccccc2C(F)(F)F)C3)CC1CC#N` (stereo partly drawn) [Example 210, 2-(1-acryloyl-4-(2-(((S)-1-methylpyrrolidin-2-yl)methoxy)-7-(2-(trifluoromethyl)phenyl)-5,6,7,8-tetrahydropyrido[3,4-d]pyrimidin-4-yl)piperazin-2-yl)acetonitrile], the IC50 in assay [1] was 0.0001 to 1 µM. Besides, the POC entry at KRas G12C is on record as “C (“C”>50% POC)”.

As to `C=CC(=O)N1CCN(c2nc(OC[C@@H]3CCCN3C)nc3c2CCN(c2ccccc2OC(F)(F)F)C3)CC1CC#N` (stereo partly drawn) [Example 211, 2-(1-acryloyl-4-(2-(((S)-1-methylpyrrolidin-2-yl)methoxy)-7-(2-(trifluoromethoxy)phenyl)-5,6,7,8-tetrahydropyrido[3,4-d]pyrimidin-4-yl)piperazin-2-yl)acetonitrile], the IC50 in assay [1] (NCI-H358, 3 h) lay in the range of 0.0001 to 1 µM. Further, at KRas G12C, the POC result was “C (“C”>50% POC)”.

Turning to `C=CC(=O)N1CCN(c2nc(OC[C@@H]3CCCN3C)nc3c2CCN(c2cnccc2C(F)(F)F)C3)CC1CC#N` (stereo partly drawn) [Example 212, 2-(1-acryloyl-4-(2-(((S)-1-methylpyrrolidin-2-yl)methoxy)-7-(4-(trifluoromethyl)pyridin-3-yl)-5,6,7,8-tetrahydropyrido[3,4-d]pyrimidin-4-yl)piperazin-2-yl)acetonitrile], the IC50 in assay [1] (NCI-H358, 3 h) was 0.0001 to 1 µM. Moreover, the POC entry at KRas G12C is “C (“C”>50% POC)”.

Take `C=CC(=O)N1CCN(c2nc(OCCCN3CCOCC3)nc3c2CCN(c2cc(O)cc(C)c2C)C3)CC1` [Example 213, 1-(4-(7-(5-hydroxy-2,3-dimethylphenyl)-2-(3-morpholinopropoxy)-5,6,7,8-tetrahydropyrido[3,4-d]pyrimidin-4-yl)piperazin-1-yl)prop-2-en-1-one]: in assay [1], the IC50 was greater than 1 µM. In addition, the POC entry on KRas G12C is on record as “C (“C”>50% POC)”.

For the compound `C=CC(=O)N1CCN(c2nc(OCCCN3CCOCC3)nc3c2CCN(c2cc(O)ccc2SC(F)(F)F)C3)CC1` [Example 214, 1-(4-(7-(5-hydroxy-2-((trifluoromethyl)thio)phenyl)-2-(3-morpholinopropoxy)-5,6,7,8-tetrahydropyrido[3,4-d]pyrimidin-4-yl)piperazin-1-yl)prop-2-en-1-one], in assay [1], the IC50 was greater than 1 µM. Besides, the POC result at KRas G12C is listed as “C (“C”>50% POC)”.

As to `C=CC(=O)N1CCN(c2nc(OC(CO)CN3CCOCC3)nc3c2CCN(c2cc(O)cc4ccccc24)C3)CC1` (stereo not drawn) [Example 217, 1-(4-(2-((1-hydroxy-3-morpholinopropan-2-yl)oxy)-7-(3-hydroxynaphthalen-1-yl)-5,6,7,8-tetrahydropyrido[3,4-d]pyrimidin-4-yl)piperazin-1-yl)prop-2-en-1-one], the half-inhibitory concentration (IC50) in assay [1] (NCI-H358, 3 h) is greater than 1 µM. Also, the POC entry at KRas G12C is “C (“C”>50% POC)”.
